Values quoted from earlier work, collected in patent US4666715A, “Antibiotic AM-5344-A2 substance and process for the production thereof” (Kitasato Institute, priority 1980, dated 1987).

Tests used:
[1] = known antibiotics, literature
[2] = test system: Gram-positive bacterium; details: known antibiotics, literature
[3] = known antibiotics, literature; remark: listed apart in the source

| Compound | acidity (neutral) [1] | effective to Gram-positive bacteria [2] | fat solubility [3] |
| --- | --- | --- | --- |
| COC(=O)c1cc2cc3cc4cc(CC(=O)O)c(C(=O)/C=C(\O)c5ccccc5O)c(OC)c4c(OC)c3c(O)c2c(=O)o1 [Thermorubin A] | neutral | effective |  |
| Cerulomycin | neutral | effective |  |
| Mekemycin | neutral | effective |  |
| CO[C@H]1[C@@H](O)[C@@H](C)O[C@H](O[C@H]2[C@H](Oc3cccc4c(O)c5c(=O)oc6ccc(C)c7c(=O)oc(c34)c5c67)O[C@H](C)[C@H](O)[C@@H]2O)[C@@H]1O [Chartreusin] | neutral | effective | fat-soluble |
